Results taken from publication PMC4368888, “Preclinical to Clinical Translation of CNS Transporter Occupancy of TD-9855, a Novel Norepinephrine and Serotonin Reuptake Inhibitor” (International Journal of Neuropsychopharmacology, 2015).

Experiments:
[1] = Human plasma pharmacokinetics; type: in vivo; conditions: 20mg single oral dose, Day 1, n = 3
Protocol: Four 6mL samples were drawn at 2, 4, 6, and 24hr post TD-9855 dosing. Three additional 6mL samples were drawn prior to each PET scan and approximately 60 and 120min after the beginning of each PET scan. Plasma samples were analyzed for TD-9855 concentrations by a validated LC-MS/MS method. The lower limit of quantification for TD-9855 was 0.05ng/mL.

rat native SERT = biological target: T1, rat native SERT (Rattus norvegicus, UniProt P31652); assay: [3H]-citalopram binding, rat cortical membranes; conditions: mean (95% CI), 3 to 9 experiments, read-out: Transporter Binding: pKi SERT (converted)
T1 construct: at human recombinant and rat native monoamine transporters; from tissue
T1 sequence (P31652 whole entry): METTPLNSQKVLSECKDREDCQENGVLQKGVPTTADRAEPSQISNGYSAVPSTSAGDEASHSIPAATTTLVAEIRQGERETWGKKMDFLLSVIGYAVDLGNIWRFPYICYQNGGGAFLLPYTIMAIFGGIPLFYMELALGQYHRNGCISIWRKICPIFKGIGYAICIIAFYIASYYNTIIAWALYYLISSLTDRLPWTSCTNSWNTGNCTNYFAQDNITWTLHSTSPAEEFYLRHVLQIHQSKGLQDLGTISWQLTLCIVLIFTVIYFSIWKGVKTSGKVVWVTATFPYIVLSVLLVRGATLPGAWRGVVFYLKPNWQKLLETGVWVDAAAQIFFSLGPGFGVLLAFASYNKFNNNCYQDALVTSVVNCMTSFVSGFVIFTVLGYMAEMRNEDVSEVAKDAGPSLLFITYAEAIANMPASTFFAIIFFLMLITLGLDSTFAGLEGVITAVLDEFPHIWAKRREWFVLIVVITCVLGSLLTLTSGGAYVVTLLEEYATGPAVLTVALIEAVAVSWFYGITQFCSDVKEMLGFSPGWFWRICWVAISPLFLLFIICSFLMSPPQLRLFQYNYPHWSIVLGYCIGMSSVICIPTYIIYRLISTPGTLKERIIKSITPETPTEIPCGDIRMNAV
Source text: (§1) The in vitro pharmacology of TD-9855 (4-[2-(2, 4, 6-trifluorophenoxymethyl)phenyl]piperidine; Figure 1) at human recombinant and rat native monoamine transporters was characterized as described previously ([Tsuruda et al., 2010]; [Shen et al., 2013]). Radioligands were sourced commercially (Perkin Elmer Life Sciences or GE Healthcare Life Sciences). Briefly, membranes prepared from HEK293 (Human Embryonic Kidney 293) cells stably-transfected with human recombinant SERT (HEK293-hSERT), NET (HEK293-hNET), or DAT ([…]) were incubated for 1hr at 22°C in the absence, or presence, of TD-9855 and [^3H]-citalopram (1.0nM) for SERT, [^3H]-nisoxetine (2.0nM) for NET, and [^3H]-WIN35428 (3.0nM) for DAT in 50mM Tris-HCl, 120mM NaCl, 5mM KCl, 0.025% BSA, 100 μM ascorbic acid, pH 7.4. Rat cortical membrane preparations were incubated with [^3H]-citalopram (2.0nM) for SERT or [^3H]-nisoxetine (4.0nM) for NET for 1hr at 22°C. […] Binding and uptake assays were terminated by rapid filtration and radioactivity, determined by liquid scintillation spectroscopy.

SERT = SERT (Homo sapiens, UniProt P31645); assay: [3H]-citalopram equilibrium binding, HEK293-hSERT membranes; parameters: expressed in transfected cells; host or cells: HEK293 (HEK293-hSERT), stably transfected; conditions: mean (95% CI), 3 to 9 experiments, read-out: Transporter Binding: pKi SERT (converted)
Sequence of SERT (P31645 whole entry): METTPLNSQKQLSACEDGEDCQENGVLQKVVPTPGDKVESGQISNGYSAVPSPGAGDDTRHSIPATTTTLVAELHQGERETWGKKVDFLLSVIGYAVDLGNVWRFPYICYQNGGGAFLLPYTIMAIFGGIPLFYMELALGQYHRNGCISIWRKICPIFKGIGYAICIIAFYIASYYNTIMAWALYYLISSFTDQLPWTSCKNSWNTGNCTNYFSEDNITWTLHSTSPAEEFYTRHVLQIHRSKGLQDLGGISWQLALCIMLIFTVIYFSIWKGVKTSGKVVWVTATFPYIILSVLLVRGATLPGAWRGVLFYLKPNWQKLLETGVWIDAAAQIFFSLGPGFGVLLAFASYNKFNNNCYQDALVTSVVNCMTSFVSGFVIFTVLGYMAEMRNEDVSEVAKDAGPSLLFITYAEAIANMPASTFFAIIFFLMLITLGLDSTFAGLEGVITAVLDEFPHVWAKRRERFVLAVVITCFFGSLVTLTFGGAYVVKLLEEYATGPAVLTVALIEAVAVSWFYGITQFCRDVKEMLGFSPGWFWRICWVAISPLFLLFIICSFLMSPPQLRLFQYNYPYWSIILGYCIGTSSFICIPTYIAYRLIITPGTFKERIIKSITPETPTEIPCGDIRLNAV
Source text: as §1

in vivo = conditions: Sprague Dawley, rat, po
Protocol: TD-9855 Rat Administration and Sampling — Rats (n = 6/timepoint/dose level) received a single oral dose of TD-9855 (0.3, 1, 5, 10, 30, and 60mg/kg) and were euthanized by decapitation at specified time points (0.5, 2, 4, 6, and 8hr for 5mg/kg dose level; 2hr for 0.3, 1, 10, 30, and 60mg/kg dose levels) post-administration. Spinal cords were dissected for ex vivo transporter occupancy and PK assessments from the same animals. The spinal cord was harvested by hydraulic extrusion using phosphate-buffered saline, and the lumbar segment dissected and frozen on dry ice. The remaining spinal cord segments were collected and homogenized in water (25% w/w) for PK analysis. All samples were stored at -80 °C until analysis.
Rat PK/PD Modeling — PK/PD parameters were estimated by a compartmental modeling approach (WinNonlin Version 5.0.1, Pharsight Corporation). One- and two-compartment PK models with first-order absorption and elimination were evaluated. The one-compartment model was selected. The pharmacodynamic model was an effect compartment Emax model linked directly to the central PK compartment (WinNonlin PK Model 3, PD Model 101). Selection of models was based upon best fit in terms of visual inspection, Akaike Information Criteria, and weighted residual sum of squares using the Gauss-Newton minimization method. The following parameters were estimated:
k01 (hr^-1): First-order absorption rate constant.
V/F (L/kg): Volume of the central compartment divided by oral bioavailability
k10 (hr^-1): Elimination rate constant from the central compartment

NET = NET (Homo sapiens, UniProt P23975); assay: Transporter binding kinetics in vitro at human NET
Sequence of NET (P23975 whole entry): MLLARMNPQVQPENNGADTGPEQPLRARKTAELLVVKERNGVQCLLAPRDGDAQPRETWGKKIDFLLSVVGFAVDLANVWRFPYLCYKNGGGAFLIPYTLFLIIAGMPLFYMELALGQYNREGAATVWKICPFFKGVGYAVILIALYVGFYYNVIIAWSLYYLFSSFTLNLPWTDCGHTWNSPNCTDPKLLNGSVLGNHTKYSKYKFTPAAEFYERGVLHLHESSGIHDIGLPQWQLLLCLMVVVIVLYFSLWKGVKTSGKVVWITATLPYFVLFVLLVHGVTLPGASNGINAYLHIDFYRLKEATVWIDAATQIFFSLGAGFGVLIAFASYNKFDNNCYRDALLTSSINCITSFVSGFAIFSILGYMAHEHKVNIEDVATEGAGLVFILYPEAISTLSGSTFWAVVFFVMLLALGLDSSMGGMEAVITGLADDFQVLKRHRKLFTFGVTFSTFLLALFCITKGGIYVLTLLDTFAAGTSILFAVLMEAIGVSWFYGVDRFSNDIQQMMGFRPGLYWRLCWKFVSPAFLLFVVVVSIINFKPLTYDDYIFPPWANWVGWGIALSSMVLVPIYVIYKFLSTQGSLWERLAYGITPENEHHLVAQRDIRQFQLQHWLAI

rat native DAT = biological target: T2, rat native DAT (Rattus norvegicus, UniProt P23977); assay: [3H]-DA uptake inhibition in rat striatal synaptosomes; type: biochemical; conditions: mean (95% CI), 3 to 9 experiments, read-out: Neurotransmitter Uptake Inhibition: pIC50 DAT (converted)
T2 construct: at human recombinant and rat native monoamine transporters; from tissue; host or cells: rat striatal synaptosomes
T2 sequence (P23977 whole entry): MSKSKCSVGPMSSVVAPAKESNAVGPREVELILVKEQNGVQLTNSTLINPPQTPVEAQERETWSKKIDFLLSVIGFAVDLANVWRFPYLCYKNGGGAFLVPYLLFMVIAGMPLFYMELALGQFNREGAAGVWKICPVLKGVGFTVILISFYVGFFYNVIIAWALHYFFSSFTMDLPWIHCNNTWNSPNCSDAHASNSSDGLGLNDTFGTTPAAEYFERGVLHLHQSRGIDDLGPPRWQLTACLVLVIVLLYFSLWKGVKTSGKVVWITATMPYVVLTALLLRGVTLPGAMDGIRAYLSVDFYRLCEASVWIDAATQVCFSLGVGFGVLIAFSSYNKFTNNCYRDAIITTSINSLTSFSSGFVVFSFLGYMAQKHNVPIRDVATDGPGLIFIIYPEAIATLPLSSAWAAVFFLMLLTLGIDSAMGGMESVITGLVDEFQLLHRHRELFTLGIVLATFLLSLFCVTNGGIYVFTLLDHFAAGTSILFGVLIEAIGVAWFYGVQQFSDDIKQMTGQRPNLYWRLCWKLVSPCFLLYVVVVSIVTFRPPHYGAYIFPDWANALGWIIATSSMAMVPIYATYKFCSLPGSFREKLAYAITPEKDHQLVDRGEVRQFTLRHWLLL
Source text: as §1

SMILES: Fc1cc(F)c(OCc2ccccc2C2CCNCC2)c(F)c1 [TD-9855, 4-[2-(2,4,6-trifluorophenoxymethyl)phenyl]piperidine]
- mean plasma concentration at SERT scan [1]: 6.35 ng/mL
- Ki (rat native SERT): 3.16 nM
- Ki (SERT): 3.16 nM
- K01, first-order absorption rate constant (in vivo): 0.777 (108) hr^-1
- V/F (in vivo): 54.8 (66) L/kg
- k el (in vivo): 8.86e-05 s⁻¹
- kon (NET; read-out: association rate constant at NET (converted)): 917000 M⁻¹ s⁻¹
- koff (NET; read-out: dissociation rate constant at NET (converted)): 0.00115 s⁻¹
- IC50 (rat native DAT): 126 nM
